Results from PubChem BioAssay AID1963848 (Molecular Pharmacology Branch, DTP, NCI, 2024).

Test system: 379773-124-R-J2-PDC spheroid viability
Experiment: Anticancer human tumor 379773-124-R-J2-PDC patient-derived endometrial carcinoma cell line growth inhibition [POLQ]
Conditions: spheroids with HUVEC and MSC; for IC50: curve of first compound; for viability, T/C: stronger effect = lower value
How it was run: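 PDC + HUVEC + MSC complex spheroids; POLQ inhibitors ± partner drugs; top conc. at/near clinical Cmax, else 10 microM (SN-38 1 microM), half-log dilutions; 37 degrees C, 5% CO2.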

[1] = second compound 0.0316 µM, first compound 0.0316 µM
[2] = second compound 0.0316 µM, first compound 0.1 µM
[3] = second compound 0.1 µM, first compound 0.0316 µM
[4] = second compound 0.1 µM, first compound 0.1 µM
[5] = second compound 0.316 µM, first compound 0.0316 µM
[6] = second compound 0.316 µM, first compound 0.1 µM
[7] = second compound 1 µM, first compound 0.0316 µM
[8] = second compound 1 µM, first compound 0.1 µM
[9] = second compound 3.16 µM, first compound 0.0316 µM
[10] = second compound 3.16 µM, first compound 0.1 µM
[11] = second compound 10 µM, first compound 0.0316 µM
[12] = second compound 10 µM, first compound 0.1 µM
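Note: spheroids exposed to drugs for seven days before readout.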
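Throughout, for viability, T/C: percent viability relative to DMSO vehicle control taken as 100%.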

With CC[C@@]1(O)C(=O)OCc2c1cc1n(c2=O)Cc2cc3c(CN(C)C)c(O)ccc3nc2-1 + Nc1ccc(C#CCN(C(=O)Cc2ncc(C(F)(F)F)cc2C(F)(F)F)c2ccc(F)cc2)nn1 the IC50 (second compound 0.0316 µM) was 29.5 nM, the IC50 (second compound 0.1 µM) was 29 nM and the IC50 (second compound 0.316 µM) was 26 nM. It also gave an IC50 (second compound 1 µM) of 26.4 nM, an IC50 (second compound 3.16 µM) of 24.5 nM and an IC50 (second compound 10 µM) of 22.5 nM. The viability, T/C (second compound 0.0316 µM, first compound 0.000316 µM) was 96.7%, the viability, T/C (second compound 0.0316 µM, first compound 0.001 µM) was 89% and the viability, T/C (second compound 0.0316 µM, first compound 0.00316 µM) was 80.7%. It also gave a viability, T/C (second compound 0.0316 µM, first compound 0.01 µM) of 96%, a viability, T/C [1] of 47.3% and a viability, T/C [2] of 22.3%. For the same compound, the viability, T/C (second compound 0.1 µM, first compound 0.000316 µM) was 90.8%, the viability, T/C (second compound 0.1 µM, first compound 0.001 µM) was 87.6% and the viability, T/C (second compound 0.1 µM, first compound 0.00316 µM) was 91.4%. It also gave a viability, T/C (second compound 0.1 µM, first compound 0.01 µM) of 89.6%, a viability, T/C [3] of 46.7% and a viability, T/C [4] of 19.8%. The viability, T/C (second compound 0.316 µM, first compound 0.000316 µM) was 93%, the viability, T/C (second compound 0.316 µM, first compound 0.001 µM) was 96.3% and the viability, T/C (second compound 0.316 µM, first compound 0.00316 µM) was 102%. The viability, T/C (second compound 0.316 µM, first compound 0.01 µM) was 86.2%, the viability, T/C [5] was 42.6% and the viability, T/C [6] was 20.8%. The viability, T/C (second compound 1 µM, first compound 0.000316 µM) was 100%, the viability, T/C (second compound 1 µM, first compound 0.001 µM) was 92% and the viability, T/C (second compound 1 µM, first compound 0.00316 µM) was 92.2%. For the same compound, the viability, T/C (second compound 1 µM, first compound 0.01 µM) was 83.7%, the viability, T/C [7] was 43.6% and the viability, T/C [8] was 21.2%. For the same compound, the viability, T/C (second compound 3.16 µM, first compound 0.000316 µM) was 110%, the viability, T/C (second compound 3.16 µM, first compound 0.001 µM) was 90.5% and the viability, T/C (second compound 3.16 µM, first compound 0.00316 µM) was 85.8%. For the same compound, the viability, T/C (second compound 3.16 µM, first compound 0.01 µM) was 85.1%, the viability, T/C [9] was 39.6% and the viability, T/C [10] was 18.9%. For the same compound, the viability, T/C (second compound 10 µM, first compound 0.000316 µM) was 94%, the viability, T/C (second compound 10 µM, first compound 0.001 µM) was 79.9% and the viability, T/C (second compound 10 µM, first compound 0.00316 µM) was 81.9%. For the same compound, the viability, T/C (second compound 10 µM, first compound 0.01 µM) was 83.3%, the viability, T/C [11] was 36% and the viability, T/C [12] was 21.8%.
With C=CC(=O)N1CCN(c2nc(=O)n(-c3c(C)ccnc3C(C)C)c3nc(-c4c(O)cccc4F)c(F)cc23)C(C)C1 (centres undefined) + Cc1cccc(N(C)C(=O)C2C(O)CCN2c2nc(C)cc(C(F)(F)F)c2C#N)c1 the IC50 (second compound 0.0316 µM) was > 10000 nM, the IC50 (second compound 0.1 µM) was > 10000 nM and the IC50 (second compound 0.316 µM) was > 10000 nM. The IC50 (second compound 1 µM) was > 10000 nM, the IC50 (second compound 3.16 µM) was > 10000 nM and the IC50 (second compound 10 µM) was > 10000 nM. The viability, T/C [1] was 88.5%, the viability, T/C [2] was 89.8% and the viability, T/C (second compound 0.0316 µM, first compound 0.316 µM) was 82%. The viability, T/C (second compound 0.0316 µM, first compound 1 µM) was 105%, the viability, T/C (second compound 0.0316 µM, first compound 3.16 µM) was 77.1% and the viability, T/C (second compound 0.0316 µM, first compound 10 µM) was 76.2%. It also gave a viability, T/C [3] of 84.9%, a viability, T/C [4] of 77.8% and a viability, T/C (second compound 0.1 µM, first compound 0.316 µM) of 87.7%. It also gave a viability, T/C (second compound 0.1 µM, first compound 1 µM) of 74.4%, a viability, T/C (second compound 0.1 µM, first compound 3.16 µM) of 80.4% and a viability, T/C (second compound 0.1 µM, first compound 10 µM) of 86.1%. The viability, T/C [5] was 91%, the viability, T/C [6] was 70.4% and the viability, T/C (second compound 0.316 µM, first compound 0.316 µM) was 82.8%. The viability, T/C (second compound 0.316 µM, first compound 1 µM) was 85%, the viability, T/C (second compound 0.316 µM, first compound 3.16 µM) was 95.8% and the viability, T/C (second compound 0.316 µM, first compound 10 µM) was 75.7%. The viability, T/C [7] was 80%, the viability, T/C [8] was 81.1% and the viability, T/C (second compound 1 µM, first compound 0.316 µM) was 95.2%. For the same compound, the viability, T/C (second compound 1 µM, first compound 1 µM) was 75.2%, the viability, T/C (second compound 1 µM, first compound 3.16 µM) was 87.4% and the viability, T/C (second compound 1 µM, first compound 10 µM) was 64.2%. The viability, T/C [9] was 84.4%, the viability, T/C [10] was 90.3% and the viability, T/C (second compound 3.16 µM, first compound 0.316 µM) was 87.3%. It also gave a viability, T/C (second compound 3.16 µM, first compound 1 µM) of 86.3%, a viability, T/C (second compound 3.16 µM, first compound 3.16 µM) of 86.6% and a viability, T/C (second compound 3.16 µM, first compound 10 µM) of 78.9%. The viability, T/C [11] was 78%, the viability, T/C [12] was 82.1% and the viability, T/C (second compound 10 µM, first compound 0.316 µM) was 91.8%. For the same compound, the viability, T/C (second compound 10 µM, first compound 1 µM) was 73.5%, the viability, T/C (second compound 10 µM, first compound 3.16 µM) was 82.8% and the viability, T/C (second compound 10 µM, first compound 10 µM) was 84.3%.
